Measurements reported in PMC6033295, “The Effects of the Honey-Roasting Process on the Pharmacokinetics of the Six Active Compounds of Licorice” (Evidence-based Complementary and Alternative Medicine : eCAM, 2018).
Where two headings read alike, the source gives them in different places.

Experiments:
[1] = Pharmacokinetic study in rats after oral administration of raw/honey-roasting licorice water decoction (UPLC-MS/MS of plasma); format: in vivo, Wistar rats; conditions: for AUC0-24h / Tmax / AUC(0-t) / Cmax: rat plasma, 2.7 g (crude drug)/kg, n = 5; for AUC(0-t): read-out: AUC0-24h
Experimental: Healthy male Wistar rats (weighing 200 ± 20 g) were obtained from the Laboratory Animal Centre of Shanghai Jiao Tong University (Shanghai, China). […] All protocols and procedures were approved by the Shanghai Jiao Tong University Animal Care and Use Committee.
Chromatographic separation was performed on a ZORBAX Eclipse Plus C18 column (50 mm × 2.1 mm, 1.8 µm). […] The flow rate was set at 0.4 mL/min. The column temperature and injection volume were set at 40°C and 2.0 µL, respectively. An MS system operating in negative electrospray ionization mode was employed in this study. […] The DP for each compound and IS were -120, -100, -100, -100, -100, -80, and -100 V, respectively. The collision energy for each compound and IS were -58, -32, -42, -32, -32, -65, and -20 V, respectively. The ion spray needle voltage was set at -4500 V, and the source temperature was 500°C. Following optimization of the setting parameters, the ESI source was operated with the GS1, GS2, and CUR (Nitrogen) set at 35, 35, and 40 psi, respectively.
Fifty microliters of the plasma samples (or standard plasma samples and QC samples) were spiked with 5 µL of IS solution (10.00 µg/mL) and 200 µL of acetonitrile. The mixture was vortexed for 30 s and centrifuged at 14,000 rpm for 15 min at 4°C. The supernatant was collected and evaporated in a 37°C water bath under a nitrogen stream. The residue was redissolved with 500 µL of 70% acetonitrile.
After being housed in a controlled environment for a week, rats were randomly divided into three groups (n = 5 for each group) and were then orally administered a raw, 25% honey-roasting, or 50% honey-roasting licorice water decoction at a dosage of 2.7 g (crude drug)/kg. Blood samples of 0.15 mL were taken from the suborbital vein into heparinized tubes at 0.17, 0.5, 1, 1.5, 2, 2.5, 3, 4, 6, 8, 12, and 24 h after oral administration of the licorice water decoction. The blood samples were immediately centrifuged at 10,000 rpm for 15 min. The separated plasma samples were frozen at -80°C before analysis.
The pharmacokinetic parameters of the six compounds were calculated by […] 4.4.1 (Thermo Electron Corporation, Philadelphia, PA, USA) software. […] Data were presented as the mean ± SD. Statistical analyses of all the data obtained were evaluated using one-way ANOVA (SPSS 17.0).

[2] = Stability of six compounds in rat plasma (QC samples); format: in vitro ADME; conditions: n = 6
Experimental: The stabilities of the six compounds in rat plasma were evaluated by analyzing QC samples under different conditions. […] Long-term stability was tested by storing QC samples at -80°C for one month. RSD was evaluated by analyzing six replicate samples. The stability of the six compounds was evaluated under various conditions.

[3] = design: method as in PMID 8197226, PMID 1432618; conditions: cited from earlier work
[4] = oral 25% honey-roasting licorice water decoction
[5] = oral 50% honey-roasting licorice water decoction
[6] = oral raw licorice water decoction
[7] = At 4°C for 24 h, postpreparative QC sample in autosampler, high concentration level
[8] = At 4°C for 24 h, postpreparative QC sample in autosampler, low concentration level
[9] = At 4°C for 24 h, postpreparative QC sample in autosampler, medium concentration level
[10] = At -80°C for 1 month, rat plasma QC sample, high concentration level
[11] = At -80°C for 1 month, rat plasma QC sample, low concentration level
[12] = 25% honey-roasting group vs raw group, rat, oral
[13] = male, Wistar, rat, plasma, po, oral 25% honey-roasting licorice water decoction
[14] = male, Wistar, rat, plasma, po, oral 25% honey-roasting licorice water decoction, read-out: Cmax
[15] = male, Wistar, rat, plasma, po, oral 25% honey-roasting licorice water decoction, read-out: Tmax
[16] = male, Wistar, rat, plasma, po, oral 50% honey-roasting licorice water decoction
[17] = male, Wistar, rat, plasma, po, oral 50% honey-roasting licorice water decoction, read-out: Cmax
[18] = male, Wistar, rat, plasma, po, oral 50% honey-roasting licorice water decoction, read-out: Tmax
[19] = male, Wistar, rat, plasma, po, oral raw licorice water decoction
[20] = male, Wistar, rat, plasma, po, oral raw licorice water decoction, read-out: Cmax
[21] = At -80°C for 1 month, rat plasma QC sample, medium concentration level
[22] = male, Wistar, rat, in vivo, po, oral 50% honey-roasting licorice water decoction

Compound | Tmax [1, 6] [h] | Stability, Average [2, 7] [%] | Stability, Average [2, 8] [%] | Stability, Average [2, 9] [%] | Stability, Average [2, 10] [%] | Stability, Average [2, 11] [%] | AUC(0-t) [1, 13] [ng·h/mL] | Cmax [1, 14] [ng/mL] | Tmax [1, 15] [h] | AUC(0-t) [1, 16] [ng·h/mL] | Cmax [1, 17] [ng/mL] | Tmax [1, 18] [h] | AUC(0-t) [1, 19] [ng·h/mL] | Cmax [1, 20] [ng/mL] | Stability, Average [2, 21] [%] | AUC(0-t) [1, 22] [ng·h/mL] | further results
O=C1C[C@@H](c2ccc(O)cc2)Oc2cc(O)ccc21 [LG, liquiritigenin] | 2.4 | 93.9 | 90.8 | 87.7 | 96.5 | 92.8 |  |  |  |  |  |  |  |  |  |  | AUC0-24h [1, 4]: 85.36 ± 14.70 ng·h/mL; Tmax [1, 4]: 2.3 h; AUC0-24h [1, 5]: 47.74 ± 8.03^∗Δ h·ng /mL; Tmax [1, 5]: 2.5 h; AUC0-24h [1, 6]: 84.29 ± 33.71 ng·h/mL
O=C(/C=C/c1ccc(O)cc1)c1ccc(O)cc1O [ILG, isoliquiritigenin] |  | 93.1 | 95.7 | 96.4 | 87.6 | 94.7 | 9.32 ± 0.68 | 1.12 ± 0.25 | 1.5 | 6.13 ± 0.8 | 0.56 ± 0.12 | 1.8 | 6.53 ± 2.34 | 0.75 ± 0.28 | 85.3 |  | Cmax higher than in the raw group [1, 12]: 49.3%; AUC0-24h increased over the raw licorice group ([1]; honey-roasting licorice vs raw licorice group, rat, oral): 42.7%; Tmax ([1]; male, Wistar, rat, plasma, po, oral raw licorice water decoction, read-out: Tmax): 1.5 h
O=C1C[C@@H](c2ccc(O[C@@H]3O[C@H](CO)[C@@H](O)[C@H](O)[C@H]3O)cc2)Oc2cc(O)ccc21 [LQ, liquiritin] |  | 99.5 | 90.9 | 88.3 | 89.5 | 96.4 | 479 ± 65.2 | 203 ± 54.1 |  |  | 87.9 ± 8.08 |  | 520 ± 94.5 |  | 95.6 | 319 ± 50 | Cmax lower than in the raw licorice group ([1]; 50% honey-roasting group vs raw licorice group, rat, oral): 53.96%; Cmax [1, 6]: 191.00 ± 80.23 ng/mL
CC1(C)[C@@H](O[C@H]2O[C@H](C(=O)O)[C@@H](O)[C@H](O)[C@H]2O[C@@H]2O[C@H](C(=O)O)[C@@H](O)[C@H](O)[C@H]2O)CC[C@]2(C)[C@H]3C(=O)C=C4[C@@H]5C[C@@](C)(C(=O)O)CC[C@]5(C)CC[C@@]4(C)[C@]3(C)CC[C@@H]12 [Glycyrrhizin, glycyrrhizin] |  |  |  |  |  |  |  |  |  |  |  |  |  |  |  |  | oral bioavailability [3]: extremely low
O=C(/C=C/c1ccc(O[C@@H]2O[C@H](CO)[C@@H](O)[C@H](O)[C@H]2O)cc1)c1ccc(O)cc1O [ILQ, isoliquiritin] |  | 95.7 | 90.2 | 89.3 | 100.1 | 89.4 |  |  |  |  |  |  |  |  | 94.2 | 246 ± 7.67 | Cmax lower than in the raw group [1, 12]: 48.07%; Tmax longer than in the raw group [1, 12]: 1.75 times; Tmax ([1]; male, Wistar, in vivo, oral 25% honey-roasting licorice water decoction, read-out: Tmax): 0.7 h; AUC(0-t) ([1]; male, Wistar, rat, in vivo, po, oral 25% honey-roasting licorice water decoction): 260 ± 8.53 ng·h/mL; Cmax ([1]; male, Wistar, rat, in vivo, po, oral 25% honey-roasting licorice water decoction, read-out: Cmax): 24.8 ± 3.63 ng/mL; Cmax ([1]; male, Wistar, rat, in vivo, po, oral 50% honey-roasting licorice water decoction, read-out: Cmax): 20.6 ± 5.82 ng/mL; AUC(0-t) ([1]; male, Wistar, rat, in vivo, po, oral raw licorice water decoction): 257 ± 19.3 ng·h/mL; Cmax ([1]; male, Wistar, rat, in vivo, po, oral raw licorice water decoction, read-out: Cmax): 47.8 ± 2.62 ng/mL
CC1(C)[C@@H](O)CC[C@]2(C)[C@H]3C(=O)C=C4[C@@H]5C[C@@](C)(C(=O)O)CC[C@]5(C)CC[C@@]4(C)[C@]3(C)CC[C@@H]12 [GA, glycyrrhetinic acid] | 8.0 | 100.9 | 96.4 | 96.2 |  | 96.2 | 7000 ± 1290 | 651 ± 200 | 6.8 | 5180 ± 2540 | 608 ± 278 | 6.8 | 6980 ± 4800 | 572 ± 311 | 102.1 |  | 
